≈ marks a conversion by molar mass, not a printed value.
Legend:
[1] = test system: Escherichia coli K-12 JR 66/W 677; experiment: Minimal inhibitory concentration, agar dilution streak method; assay type: cell-based; conditions: Escherichia coli, 18 h, read-out: minimum inhibitory concentrations
Procedure: (§1) *Agar Agar dilution streak method (nutrient agar, 37° C, 18 hours)
(§2) *Agar dilution streak method (nutrient agar, 37° C, 18 hours).

[2] = test system: Escherichia coli K-12 LA 290 R 55; experiment: as above; assay type: cell-based; conditions: 18 h, read-out: minimum inhibitory concentrations
Procedure: as §1, §2

[3] = test system: Escherichia coli K-12 ML 1629; experiment: as above; assay type: cell-based; conditions: K12ML1629, nutrient agar, 37° C, 18 hours, drug-resistant strain, read-out: minimum inhibitory concentrations
Procedure: as §1, §2

[4] = test system: Pseudomonas aeruginosa GN 315; experiment: as above; assay type: cell-based; conditions: GN315, nutrient agar, 37° C, 18 hours, drug-resistant strain, read-out: minimum inhibitory concentrations
Procedure: as §1, §2

[5] = test system: Escherichia coli K-12 ML 1410; experiment: as above; assay type: cell-based; conditions: K12ML1410, nutrient agar, 37° C, 18 hours, read-out: minimum inhibitory concentrations
Procedure: as §1, §2

[6] = test system: Escherichia coli K-12 W 677; experiment: as above; assay type: cell-based; conditions: K12W677, nutrient agar, 37° C, 18 hours, read-out: minimum inhibitory concentrations
Procedure: as §1, §2

[7] = test system: Pseudomonas aeruginosa A 3; experiment: as above; assay type: cell-based; conditions: A3, nutrient agar, 37° C, 18 hours, read-out: minimum inhibitory concentrations
Procedure: as §1, §2

[8] = test system: Pseudomonas aeruginosa No.12; experiment: as above; assay type: cell-based; conditions: nutrient agar, 37° C, 18 hours, read-out: minimum inhibitory concentrations
Procedure: as §1, §2

[9] = test system: Staphylococcus aureus FDA 209P; experiment: as above; assay type: cell-based; conditions: FDA209P, nutrient agar, 37° C, 18 hours, read-out: minimum inhibitory concentrations
Procedure: as §1, §2

[10] = test system: gram-positive and gram-negative bacteria; experiment: Antibacterial activity (in words); assay type: cell-based
Procedure: [α]D^22 + 38°, (c 0.85, water).

[11] = in vivo; conditions: mouse, iv
[12] = test system: mice; experiment: Acute intravenous toxicity (LD50) in mice; conditions: in words

CNC[C@H]1O[C@H](O[C@H]2[C@H](O)[C@@H](O[C@H]3O[C@H](CO)[C@@H](O)[C@H](N)[C@H]3O)[C@H](N)C[C@@H]2N)[C@H](N)C[C@@H]1O [3'-deoxy-6'-N-methylkanamycin B]
MIC [1]: 50 µg/mL (≈ 104 µM)
MIC [2]: 50 µg/mL (≈ 104 µM)
MIC [3]: 1.56 µg/mL (≈ 3.24 µM)
MIC [4]: 6.25 µg/mL (≈ 13 µM)

NC[C@H]1O[C@H](O[C@H]2[C@H](O)[C@@H](O[C@H]3O[C@H](CO)[C@@H](O)[C@H](N)[C@H]3O)[C@H](N)C[C@@H]2N)[C@H](N)C[C@@H]1O [3'-deoxykanamycin B]
MIC [1]: 50 µg/mL (≈ 107 µM)
MIC [2]: 50 µg/mL (≈ 107 µM)
MIC [3]: 0.78 µg/mL (≈ 1.67 µM)
MIC [4]: 100 µg/mL (≈ 214 µM)

NC[C@H]1O[C@H](O[C@H]2[C@H](O[C@@H]3O[C@H](CO)[C@@H](O)[C@H]3O)[C@@H](O)[C@H](N)C[C@@H]2N)[C@H](N)C[C@@H]1O [3'-deoxyribostamycin]
MIC [1]: > 100 µg/mL
MIC [2]: > 100 µg/mL
MIC [3]: > 100 µg/mL
MIC [4]: > 100 µg/mL

NCC[C@H](O)C(=O)N[C@@H]1C[C@H](N)[C@@H](O[C@H]2O[C@H](CN)[C@@H](O)C[C@H]2N)[C@H](O)[C@H]1O[C@H]1O[C@H](CO)[C@@H](O)[C@H](N)[C@H]1O [AHB-deoxykanamycin B, 1-N-[(S)-4-amino-2-hydroxybutyryl]-3'-deoxykanamycin B]
MIC [1]: 3.12 µg/mL (≈ 5.49 µM)
MIC [2]: 0.78 µg/mL (≈ 1.37 µM)
MIC [5]: 0.78 µg/mL (≈ 1.37 µM)
MIC [3]: 0.78 µg/mL (≈ 1.37 µM)
MIC [6]: 1.56 µg/mL (≈ 2.74 µM)
MIC [7]: 0.78 µg/mL (≈ 1.37 µM)
MIC [4]: 50 µg/mL (≈ 87.9 µM)
MIC [8]: 0.78 µg/mL (≈ 1.37 µM)
MIC [9]: 0.78 µg/mL (≈ 1.37 µM)
antibacterial activity compared with parent or reference substance ([10]; sensitive (and resistant) bacteria): antibacterial activity as high as that of their parent substances
antibacterial activity ([10]; various gram-positive and gram-negative bacteria, including resistant strains): high antibacterial activity against the kanamycin-resistant strains
LD50 [11]: > 100 mg/kg
toxicity [12]: toxicity as low as that of their parent substances

— patent publication US4107424A, “1-N-[(S)-α-hydroxy-ω-aminoacyl] derivatives of 3',4'-dideoxykanamycin B and 3'-deoxykanamycin B antibiotics” (Zaidan Hojin Biseibutsu Kagaku Kenkyu Kai, priority 1972, dated 1978)
